We go through 16 molecules from ChEMBL document CHEMBL3399942, “Identification and optimization of pyridazinones as potent and selective c-Met kinase inhibitors” (Bioorg Med Chem Lett, 2015).

A short description of data set [1]: Oral bioavailability in NMRI mouse at 0.5 mg/kg by LC/MS/MS analysis. Format: ADME, organism-based. The following applies: in vivo.
For data set [2], the target named is T1, Hepatocyte growth factor receptor (Homo sapiens, UniProt P08581). Nature of the data set: Inhibition of c-Met kinase in human A549 cells assessed as inhibition of phosphorylation after 45 mins by electrochemiluminescence assay.
In data set [3] the target is T1, Hepatocyte growth factor receptor. Nature of the data set: Inhibition of GST-His6-tagged recombinant human c-Met kinase domain (956 to 1390) after 60 mins by anoff-chip mobility shift assay.
Data set [4] in a line: Clearance in NMRI mouse at 0.2 mg/kg, iv and 0.5 mg/kg, po by LC/MS/MS analysis. It is filed as ADME, organism-based. The following applies: in vivo.
Data set [5] deals with T2, Phosphodiesterase 4 (Homo sapiens, UniProt P27815+Q08499+Q07343+Q08493). Description: Inhibition of PDE4 (unknown origin) at 10 uM. Format: protein assay.
Data set [6] deals with T3, Phosphodiesterase 3 (Homo sapiens, UniProt Q14432+Q13370). Description: Inhibition of PDE3 (unknown origin) at 10 uM. Format: protein assay.
The nature of data set [7]: Lipophilicity, log D of the compound. It is filed as physicochemical. The settings on record: octanol/water.
Data set [8] is described as follows: Clearance in Wistar rat at 3 mg/kg, iv after 24 hrs by LC/MS/MS analysis. Format: ADME, organism-based. Further details: dose 3 mg/kg, route intravenous. The settings on record: in vivo.
Data set [9] in a line: Cmax in beagle dog at 5 mg/kg, po after 48 hrs by LC/MS/MS analysis. Further details: dose 5 mg/kg, route oral. It is filed as ADME, organism-based, Canis lupus familiaris. The settings on record: in vivo.
A short description of data set [10]: Oral bioavailability in cynomolgus monkey at 5 mg/kg after 72 hrs by LC/MS/MS analysis. It is filed as ADME, organism-based, Macaca fascicularis. The following applies: in vivo.
Data set [11] can be described thus: Cmax in cynomolgus monkey at 5 mg/kg, po after 72 hrs by LC/MS/MS analysis. It is filed as ADME, organism-based, Macaca fascicularis. Further details: dose 5 mg/kg, route oral. The settings on record: in vivo.
Data set [12] is described as follows: Volume of distribution at steady state in Wistar rat at 3 mg/kg, iv after 24 hrs by LC/MS/MS analysis. Further details: dose 3 mg/kg, route intravenous. The following applies: in vivo, read-out: Vdss. It is filed as ADME, organism-based.
The nature of data set [13]: Cmax in NMRI mouse at 5 mg/kg, po after 24 hrs by LC/MS/MS analysis. Further details: dose 5 mg/kg, route oral. It is filed as ADME, organism-based. The following applies: in vivo.
Data set [14] is described as follows: Toxicity in po dosed CD-1 nude mouse xenografted with human EBC1 cells administered qd for 5 days on and 2 days off up to 32 days. Format: organism-based. The following applies: in vivo. For orientation: In xenograft studies the graft and the host belong to different species.
Data set [15] in a line: Oral bioavailability in Wistar rat at 6 mg/kg after 24 hrs by LC/MS/MS analysis. It is filed as ADME, organism-based. The settings on record: in vivo.
Data set [16] in a line: Fraction unbound in human plasma. It is filed as ADME, cell-free.
A short description of data set [17]: Cmax in Wistar rat at 6 mg/kg, po after 24 hrs by LC/MS/MS analysis. Further details: dose 6 mg/kg, route oral. The following applies: in vivo. It is filed as ADME, organism-based.
Data set [18] can be described thus: Half life in cynomolgus monkey at 2 mg/kg, iv after 72 hrs by LC/MS/MS analysis. It is filed as ADME, organism-based, Macaca fascicularis. Further details: dose 2 mg/kg, route intravenous. The following applies: in vivo.
Data set [19] can be described thus: Fraction unbound in beagle dog plasma. Format: ADME, cell-free, Canis lupus familiaris.
Data set [20] can be described thus: Oral bioavailability in beagle dog at 5 mg/kg after 48 hrs by LC/MS/MS analysis. It is filed as ADME, organism-based, Canis lupus familiaris. The settings on record: in vivo.
Data set [21] can be described thus: Half life in NMRI mouse at 2 mg/kg, iv after 24 hrs by LC/MS/MS analysis. Format: ADME, organism-based. Further details: dose 2 mg/kg, route intravenous. The settings on record: in vivo.
Data set [22] is described as follows: Volume of distribution at steady state in beagle dog at 2 mg/kg, iv after 48 hrs by LC/MS/MS analysis. Format: ADME, organism-based, Canis lupus familiaris. Further details: dose 2 mg/kg, route intravenous. The settings on record: in vivo, read-out: Vdss.
Data set [23] can be described thus: Half life in Wistar rat at 3 mg/kg, iv after 24 hrs by LC/MS/MS analysis. It is filed as ADME, organism-based. Further details: dose 3 mg/kg, route intravenous. The following applies: in vivo.
The nature of data set [24]: Plasma protein binding in human at 10 uM. Format: ADME, cell-free. The settings on record: read-out: PPB (converted).
Data set [25] can be described thus: Plasma protein binding in human at 0.3 uM. Format: ADME, cell-free. The following applies: read-out: PPB (converted).
The nature of data set [26]: Fraction unbound in Wistar rat plasma. Format: ADME, cell-free.
Data set [27] in a line: Clearance in NMRI mouse at 2 mg/kg, iv after 24 hrs by LC/MS/MS analysis. The following applies: in vivo. Further details: dose 2 mg/kg, route intravenous. Format: ADME, organism-based.
A short description of data set [28]: Half life in beagle dog at 2 mg/kg, iv after 48 hrs by LC/MS/MS analysis. Further details: dose 2 mg/kg, route intravenous. The settings on record: in vivo. Format: ADME, organism-based, Canis lupus familiaris.
Data set [29] in a line: Oral bioavailability in NMRI mouse at 5 mg/kg after 24 hrs by LC/MS/MS analysis. It is filed as ADME, organism-based. The following applies: in vivo.
Data set [30] can be described thus: Fraction unbound in NMRI mouse plasma. It is filed as ADME, cell-free.
Data set [31] in a line: Fraction unbound in cynomolgus monkey plasma. Format: ADME, cell-free, Macaca fascicularis.
Data set [32] in a line: Clearance in beagle dog at 2 mg/kg, iv after 48 hrs by LC/MS/MS analysis. It is filed as ADME, organism-based, Canis lupus familiaris. Further details: dose 2 mg/kg, route intravenous. The following applies: in vivo.
The test system of another data set is EBC-1. Nature of the data set: Antitumor activity against human EBC1 cells xenografted in CD-1 nude mouse assessed as tumor regression at 15 mg/kg, po qd administered for 5 days on and 2 days off up to 32 days. Format: functional, organism-based. Further details: dose 15 mg/kg.
The subject of a further data set is Mus musculus. Nature of the data set: Toxicity in CD-1 nude mouse xenografted with human EBC1 cells assessed as body weight loss at 15 mg/kg, po qd administered for 5 days on and 2 days off up to 32 days. Format: organism-based. Further details: dose 15 mg/kg, route oral. The following applies: in vivo.
A short description of data set [33]: Clearance in cynomolgus monkey at 2 mg/kg, iv after 72 hrs by LC/MS/MS analysis. Further details: dose 2 mg/kg, route intravenous. It is filed as ADME, organism-based, Macaca fascicularis. The settings on record: in vivo.
Data set [34] in a line: Volume of distribution at steady state in cynomolgus monkey at 2 mg/kg, iv after 72 hrs by LC/MS/MS analysis. Format: ADME, organism-based, Macaca fascicularis. Further details: dose 2 mg/kg, route intravenous. The following applies: in vivo, read-out: Vdss.
Data set [35] can be described thus: Volume of distribution at steady state in NMRI mouse at 2 mg/kg, iv after 24 hrs by LC/MS/MS analysis. It is filed as ADME, organism-based. Further details: dose 2 mg/kg, route intravenous. The following applies: in vivo, read-out: Vdss.
Data set [36] addresses T2, Phosphodiesterase 4. Description: Inhibition of PDE4 (unknown origin). Format: protein assay.
Data set [37] addresses T3, Phosphodiesterase 3. Description: Inhibition of PDE3 (unknown origin). It is filed as protein assay.
A short description of data set [38]: Aqueous solubility of the compound in phosphate buffer at pH 7.4. Format: physicochemical.

Structures are written as SMILES. Activity calls are given as the source filed them. The calls are words filed in the database; no cut-off is given here.

T1 sequence (P08581 whole entry, the tested form may be a part): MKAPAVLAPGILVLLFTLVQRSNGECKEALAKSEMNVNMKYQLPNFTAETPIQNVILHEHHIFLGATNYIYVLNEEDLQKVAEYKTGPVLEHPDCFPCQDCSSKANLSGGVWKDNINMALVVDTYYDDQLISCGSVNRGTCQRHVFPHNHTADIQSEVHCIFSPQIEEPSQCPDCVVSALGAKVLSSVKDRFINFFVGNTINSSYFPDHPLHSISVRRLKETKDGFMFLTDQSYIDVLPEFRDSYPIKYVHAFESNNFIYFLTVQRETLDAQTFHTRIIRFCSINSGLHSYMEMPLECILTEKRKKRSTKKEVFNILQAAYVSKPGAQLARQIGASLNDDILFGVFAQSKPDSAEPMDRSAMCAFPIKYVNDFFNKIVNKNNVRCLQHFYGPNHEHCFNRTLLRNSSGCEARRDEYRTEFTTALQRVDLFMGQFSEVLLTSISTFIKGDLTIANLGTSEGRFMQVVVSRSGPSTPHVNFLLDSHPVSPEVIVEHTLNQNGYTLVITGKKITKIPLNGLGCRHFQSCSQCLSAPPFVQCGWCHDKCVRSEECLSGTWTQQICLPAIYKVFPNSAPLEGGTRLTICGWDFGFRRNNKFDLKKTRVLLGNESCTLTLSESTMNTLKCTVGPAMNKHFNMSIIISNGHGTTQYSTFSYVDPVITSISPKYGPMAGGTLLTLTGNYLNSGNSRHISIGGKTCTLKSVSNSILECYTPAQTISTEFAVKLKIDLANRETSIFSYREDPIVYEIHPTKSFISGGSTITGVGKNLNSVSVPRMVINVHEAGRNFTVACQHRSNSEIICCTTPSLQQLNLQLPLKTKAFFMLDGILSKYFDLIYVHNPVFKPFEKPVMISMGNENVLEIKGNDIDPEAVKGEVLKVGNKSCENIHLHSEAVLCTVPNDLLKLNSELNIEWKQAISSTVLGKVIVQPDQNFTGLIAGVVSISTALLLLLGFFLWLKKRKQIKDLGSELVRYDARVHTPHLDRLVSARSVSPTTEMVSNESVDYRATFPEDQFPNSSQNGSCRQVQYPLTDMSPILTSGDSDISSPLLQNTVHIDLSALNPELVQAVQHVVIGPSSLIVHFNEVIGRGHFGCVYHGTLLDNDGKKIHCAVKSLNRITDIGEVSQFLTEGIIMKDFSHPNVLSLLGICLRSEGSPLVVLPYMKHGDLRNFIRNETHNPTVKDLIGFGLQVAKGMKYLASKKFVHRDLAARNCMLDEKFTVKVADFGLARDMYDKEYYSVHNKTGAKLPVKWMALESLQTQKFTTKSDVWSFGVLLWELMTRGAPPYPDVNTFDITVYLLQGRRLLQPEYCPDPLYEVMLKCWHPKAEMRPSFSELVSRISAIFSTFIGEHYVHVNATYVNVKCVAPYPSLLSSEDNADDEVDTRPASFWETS

In general, bioavailability refers to the share of a dose that reaches the circulation, judged against a reference dose that is usually intravenous. The IC50 is the concentration needed to halve the response being measured. Take `CN(C)CCCOC(=O)Nc1cccc(CN2N=C(c3cc(F)cc(F)c3)CSC2=O)c1`: the bioavailability in data set [1] turned out to be 25%. In addition, the results for the IC50 in data set [2] and in data set [3] were 78 nM and 23 nM, respectively. For the same molecule, the clearance in data set [4] is 56.7 mL/min/kg.

The inhibition is how much of the control response was suppressed. On to `CCN(CC)CCCOC(=O)Nc1cccc(CN2N=C(c3ccc(Cl)cc3)CSC2=O)c1`, for which the IC50 in data set [3] was 90 nM. Also, the inhibition came to 49% on Phosphodiesterase 4 [5] and 1% on Phosphodiesterase 3 [6].

The logD is the decadic logarithm of the distribution of all forms, ionised or not, between an organic phase and buffer at a given pH. In [1], `CN(C)CCCOc1cnc(-c2cccc(Cn3nc(-c4cccc(C#N)c4)ccc3=O)c2)nc1` had a bioavailability of 32%. The molecule further showed a logD in data set [7] of 2.4. This molecule also had a clearance in data set [4] of 102 mL/min/kg.

What is called Cmax is the maximum level reached in the sampled fluid or tissue. The half-life is the time in which the quantity being followed falls by half. Consider `CN1CCC(COc2cnc(-c3cccc(Cn4nc(-c5cccc(C#N)c5)ccc4=O)c3)nc2)CC1` [TEPOTINIB], for which the clearance in [8] was 78.3 mL/min/kg; in data set [4], 60 mL/min/kg; in data set [27], 66.7 mL/min/kg; in [32], 55 mL/min/kg; in data set [33], 12.2 mL/min/kg. Besides, the Cmax in data set [9] turned out to be 22.4 ng/mL; in data set [11], 55.5 ng/mL; in data set [13], 62.2 ng/mL; in data set [17], 66 ng/mL. Further, the bioavailability in [1] came to 34%; in data set [10], 25%; in data set [15], 55%; in data set [20], 22%; in [29], 41%. Moreover, the Vd was 20 L/kg in data set [12], 26 L/kg in data set [22], 9.6 L/kg in data set [34] and 8.2 L/kg in data set [35]. Further, the MTD in [14] worked out at 15 mg/kg. Moreover, the fraction unbound in data set [16] was 0.023; in data set [19], 0.064; in [26] it was 0.041; in data set [30] it was 0.028; in data set [31], 0.052. In addition, the half-life is 10 h in [18], 2.1 h in data set [21], 3.2 h in data set [23] and 7.6 h in data set [28]. Besides, in data set [24], the fraction unbound at 10 µM is 0.034. In addition, the fraction unbound at 0.3 µM in [25] was 0.016. Also, the outcome with EBC-1 was Active. Also, in the data set on Mus musculus, the Activity result is on record as “Non-toxic”.

Take `Cc1nc(-c2cccc(Cn3nc(-c4cc(F)cc(F)c4)ccc3=O)c2)no1`: the IC50 in data set [3] was 800 nM.

The molecule `CN(C)CCCOc1cnc(-c2cccc(Cn3nc(-c4cccnc4)ccc3=O)c2)nc1` came in with a logD in data set [7] of 1.4.

Consider `N#Cc1cccc(-c2ccc(=O)n(Cc3cccc(-c4ncc(OCCN5CCOCC5)cn4)c3)n2)c1`, for which, in data set [1], the bioavailability was found to be 35%. The IC50 in data set [2] was 34 nM; in data set [3], 1 nM. Also, the clearance in data set [4] is 35 mL/min/kg.

Turning to `Cc1cnc(-c2cccc(Cn3nc(-c4cc(F)cc(F)c4)ccc3=O)c2)[nH]1`, the IC50 in data set [3] amounted to 5300 nM.

Regarding `CCN(CC)CCCOC(=O)Nc1cccc(CN2N=C(c3ccc(OC)c(OC)c3)CSC2=O)c1`, the IC50 against Phosphodiesterase 4 [36] stood at 63 nM; in data set [2] it was 1100 nM; against Phosphodiesterase 3 [37], 1500 nM; in data set [3], 400 nM. The bioavailability in [1] was below 5%. Moreover, in data set [4], the clearance is 100 mL/min/kg.

Regarding `CN(C)CCCOc1cnc(-c2cccc(Cn3nc(-c4cc(F)cc(F)c4)ccc3=O)c2)nc1`, in data set [7], the logD was 3.

For the molecule `CN(C)CCCOc1cnc(-c2cccc(Cn3nc(-c4cccc(F)c4)ccc3=O)c2)nc1`, the IC50 in [2] worked out at 140 nM; in data set [3], 6.5 nM. Besides, the logD in data set [7] came to 2.6.

`CN(C)CCCOC(=O)Nc1cccc(Cn2nc(-c3cc(F)cc(F)c3)ccc2=O)c1` gave a bioavailability in [1] of 30%. The same molecule gave a clearance in [4] of 51.7 mL/min/kg.

On to `CN(C)CCCOC(=O)Nc1cccc(Cn2nc(-c3ccc(F)cc3)ccc2=O)c1`, for which the inhibition against Phosphodiesterase 4 [5] was 8%; against Phosphodiesterase 3 [6], 28%.

With `O=C(Nc1cccc(Cn2nc(-c3cc(F)cc(F)c3)ccc2=O)c1)OCCCN1CCOCC1`, the inhibition on Phosphodiesterase 4 [5] is 19%; on Phosphodiesterase 3 [6], 8%.

Usually solubility stands for how much of the substance goes into solution per volume. In [38], `Cc1cnc(-c2cccc(Cn3nc(-c4cc(F)cc(F)c4)ccc3=O)c2)nc1` returned a solubility below 1 µg/mL.

In [7], `COc1cccc(-c2ccc(=O)n(Cc3cccc(-c4ncc(OCCCN(C)C)cn4)c3)n2)c1` showed a logD of 2.6.
